Assay results taken from PMC12156033, “N-Alkylamino Stilbene Compounds as Amyloid β Inhibitors for Alzheimer’s Disease Research” (Molecules, 2025).
“Also recorded” adds a separate entry of the source.

Key:
[1] = Fluorescence spectra of the compounds alone in PBS; format: physicochemical; conditions: excitation 380 nm; compound 5.0 µM in PBS
Description: (§1) All fluorescence measurements were performed using a SpectraMax M2e plate reader (Molecular Devices, San Jose, CA, USA). The fluorescence spectra of the compounds’ solution (100 μL PBS, 5.0 µM) were recorded with excitation at 380 nm and an emission wavelength from 400 to 680 nm. To PBS solutions (100 μL) of the compounds (5.0 µM), various Aβ42 species were added, with final concentrations of 5.0 µM and 25.0 µM, and their fluorescence spectra (λmax of emission) were determined as described above.

Aβ42 fibrils = target: T1, Aβ42 fibrils (Homo sapiens, UniProt P05067); assay: Fluorescence spectra of compounds with Aβ42 fibrils; format: binding; conditions: excitation 380 nm; compound 5.0 µM in PBS with Aβ fibrils
T1 construct: commercial Aβ42 peptide (AnaSpec or GL Biochem); purchased AnaSpec or GL Biochem
T1 sequence (P05067 672-713 limits assumed): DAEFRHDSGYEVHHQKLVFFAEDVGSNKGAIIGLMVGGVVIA
Description: as §1
(§2) Aβ42 powder was prepared by dissolving commercial Aβ42 peptide (AnaSpec or GL Biochem) in ammonium hydroxide solution (1%, v/v). The solution was then aliquoted out and lyophilized overnight. The resulting aliquoted powder was stored at −80 °C. Aβ42 monomers were generated by dissolving Aβ42 powder in 1,1,1,3,3,3-hexafluoro-2-propanol (HFIP, 1 mM) and incubating for 1 h at room temperature. The solution was then evaporated overnight and dried by vacuum centrifuge to result in monomeric films. Aβ42 fibrils were generated by dissolving the monomeric Aβ42 films in DMSO, diluting into the appropriate buffer, and incubating for 24 h at 37 °C with continuous agitation (final DMSO concentration was <2%). For the preparation of Aβ42 oligomers, the peptides were suspended in PBS buffer and incubated overnight at 4 °C.

[2] = target: T2, soluble Aβ42 aggregates (sAβ) (Homo sapiens, UniProt P05067); assay: Fluorescence spectra of compounds with soluble Aβ42 aggregates; format: binding; conditions: excitation 380 nm; compound 5.0 µM in PBS with soluble Aβ aggregates
T2 construct: commercial Aβ42 peptide (AnaSpec or GL Biochem); purchased AnaSpec or GL Biochem
T2 sequence (P05067 672-713 limits assumed): as above
Description: as §1, §2

[3] = tested on: Cu-Aβ42 cytotoxicity on N2a cells; assay: N2a cell rescue from Cu-induced Aβ42 cytotoxicity (Alamar blue); format: cell-based, mouse; conditions: [Aβ42] = [CuCl2] = 20 μM, compound 5 μM
Description: Mouse neuroblastoma Neuro2A (N2A) cell lines were purchased from the American Type Culture Collection (ATCC), Manassas, VA, USA. Cells were grown in DMEM/10% FBS, which is the regular growth media for N2A cells, in a humidified atmosphere with 5% CO2 at 37 °C. N2A cells were seeded in a clear 96-well plate (2.5 × 10^4/well) with DMEM/10% FBS. The media was changed to DMEM/N-2 media 24 h later. After 1 h, the treatment reagents were added. Owing to the poor solubility of compounds in the media, the final amount of DMSO used was 1% (v/v). After an additional incubation of 40 h, Alamar Blue solution was added to each well, and the cells were incubated for 90 min at 37 °C. Fluorescence intensity was measured at 590 nm (excitation wavelength = 560 nm).
The Alamar Blue assay was carried out as described, with the following treatment reagents: 20 μM Aβ42 species, 5 μM compounds, and 20 μM CuCl2.

[4] = target: T3, amyloid plaques in 5xFAD mice brain sections (Homo sapiens, UniProt P05067); assay: Histological staining of 5xFAD mice brain sections, colocalization with HJ3.4 antibody; format: binding, mouse; conditions: 11-month-old 5xFAD mice brain sections, compound 25 μM, HJ3.4 1 μg/mL
T3 construct: the amyloid beta (Aβ) peptide that makes up amyloid plaques; tissue Jackson Laboratories; host or cells: brain sections from 11-month-old 5xFAD transgenic mice (Tg6799 line)
T3 sequence (P05067 672-713 limits assumed): as above
Source text: To further investigate the affinity of the developed compounds toward various Aβ aggregates in situ, the intrinsic fluorescence properties of the compounds were employed for their ability to stain insoluble amyloid plaques. For these studies, brain sections from 11-month-old 5xFAD transgenic mice, which rapidly develop severe amyloid pathology, were co-stained with stilbenes and HJ3.4 antibody. HJ3.4 is an anti-amyloid antibody that binds to the N-terminal region of the Aβ peptide, thereby targeting both soluble and insoluble amyloid species. To evaluate the Aβ binding specificity of the compounds in vitro, brain sections from 11-month-old 5xFAD mice were washed with PBS (3 × 5 min) and blocked with bovine serum albumin (2% w/v BSA in PBS, pH 7.4, 10 min). Then, the sections were incubated with 25 μM of multifunctional compounds and sequentially stained with HJ3.4 antibody (Professor David Holtzman, 1 μg/mL) for 30 min. The brain sections were treated with 2% w/v BSA-PBS again for 4 min to remove any compounds or antibodies that were non-specifically binding to the tissue. Finally, the sections were washed with PBS (3 × 2 min) and DI water (2 min) and mounted with non-fluorescent mounting media (Vectashield). Colocalization analysis and determination of Pearson’s correlation coefficient were performed with the imaging software Fiji (ImageJ 1.52p). Mouse brains were harvested in compliance with the Institutional Animal Care and Use Committee of the University of Illinois at Urbana-Champaign (IACUC protocol #22094).

[5] = Log D measurement octanol/PBS; format: physicochemical; conditions: octanol / PBS pH 7.4, 10 μM, triplicate, ± SD
Description: The determination of log D values for N-alkylamino multifunctional compounds was performed using a slightly modified reported procedure. The compounds (final concentration 10 μM) were added to the premix suspension containing 0.5 mL octanol and 0.5 mL octanol-saturated PBS buffer (pH = 7.4). The resulting mixture was stirred vigorously for 5 min and centrifuged at 2000 rpm for 5 min. The octanol layer was separated from the PBS layer, and the fluorescence spectrum was recorded. The remaining 0.5 mL PBS layer was partitioned with 0.5 mL PBS-saturated octanol, and the octanol layer was separated after 5 min of vigorous shaking and centrifuging. The fluorescence spectrum of the octanol layer was recorded. The log D value was calculated based on the fluorescence intensity ratio for the two octanol layers. Each experiment was completed in triplicate, and the error represents the standard deviation for the average log D values.

[6] = target: T4, Aβ aggregates (sAβ and Aβ fibrils) (Homo sapiens, UniProt P05067); assay: Fluorescence turn-on assay with Aβ aggregates; format: binding; conditions: compound 5 μM in PBS pH 7.4
T4 construct: commercial Aβ42 peptide (AnaSpec or GL Biochem); purchased AnaSpec or GL Biochem
T4 sequence (P05067 672-713 limits assumed): as above
Description: A fluorescence turn-on assay was performed to interrogate the effect of structural differences on the fluorescence enhancement with Aβ aggregates. […] Increases in fluorescence intensity with different aggregates would be ideal for tools used in amyloid-based assays. […] Without the ortho-methoxy group on the EAG, there is greater fluorescence enhancement for Aβ fibrils over sAβ for L3 and L4. […] The larger fluorescence enhancement observed for L6 than L5 indicates the dimethylamine EDG/methoxy EAG pair has a greater TICT. The piperidine-EDG-containing L7 has only slightly higher turn-on with sAβ, which may be attributed to the ortho-methoxy group on the EAG. […] In this case, it appears that the methoxy on the EAG diminishes the overall fluorescence of the compound since L8 has greater baseline fluorescence and turn-on than L7. This is also the case for the morpholine-EDG-containing L9 and L10. The lack of a methoxy group on the L10 EAG, in conjunction with the oxygen heteroatom from the morpholine EDG, electronically favors turn-on with Aβ fibrils to a slight extent. […] Changing the EDG to a methyl piperazine, L11, increases baseline fluorescence and turn-on compared to L9. […] L11 and L12, both containing an N-methyl piperazine EDG, show similar turn-on with sAβ and fibrils, and the o-methoxy EAG of L11 increases overall baseline fluorescence compared to L12. […] The spectra for the remaining compounds can be found in the Supplementary Information (Figure S1). None of the three compounds with the highest fluorescence contained an o-methoxy group on the EAG.
as §1, with “above. […]” for “above.”

Aβ40 peptide = target: T5, Aβ40 peptide (Homo sapiens, UniProt P05067); assay: Aβ40 aggregation inhibition assay monitored by ThT fluorescence; format: biochemical; conditions: 25 μM Aβ40, 5 μM ThT, 5 μM compound, 37 °C, 48 h
T5 construct: a peptide solution of 25 μM Aβ40 monomers (AnaSpec, Fremont, CA, USA) was prepared; purchased AnaSpec
T5 sequence (P05067 672-711 limits assumed): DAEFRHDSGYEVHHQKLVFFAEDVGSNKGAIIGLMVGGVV
Description: To investigate the effect of these compounds on amyloid aggregation, inhibition of aggregation assays were performed using the Aβ40 peptide. Aβ40 has been implicated in inducing oxidative stress and is physiologically the most common isoform of the amyloid peptide and is therefore a widely used isoform in amyloid assays. Aβ40 is also known to have slower aggregation kinetics than Aβ42, which is helpful for studying the inhibition of the early aggregation pathway. […] Thus, a lower RFU can be interpreted as inhibiting the fibrillization of amyloids. The rest of the compounds show appreciable inhibition of Aβ aggregation as found in the Supplementary Materials (Figure S2), except for L9, which contains the morpholine EDG and a methoxy group on the EAG (Figure 3). The addition of the more polar oxygen heteroatom may instead favor hydrogen bonding interactions within the aqueous media, thereby solvating the compound and reducing early interactions with soluble aggregates. Lastly, although L2 and L3 show similar amyloid inhibition, the L3 compound lacking the o-methoxy group begins inhibition at an earlier time. […] This procedure was established in a previous publication.

SMILES | Compound λem (λmax of emission) [1] [nm] | Compound+Fibrils λem (λmax of emission) (Aβ42 fibrils) [nm] | Compound+sAβ λem (λmax of emission) [2] [nm] | Pearson's coefficient (R) of colocalization with AF594-HJ3.4 [4] | logD [5] | effect on Cu-stabilized Aβ42 / Aβ42-induced toxicity [3] | fluorescence enhancement / turn-on with Aβ aggregates [6] | inhibition of Aβ40 aggregation (ThT RFU) (Aβ40 peptide)
CNc1ccc(/C=C/c2ccc(O)c(CN3CCN(C)CCN(C)CC3)c2)cc1 [Compound L3, (E)-2-((4,7-dimethyl-1,4,7-triazonan-1-yl)methyl)-4-(4-(methylamino)styryl)phenol] | 455 | 430 | 430 | 0.72 | 0.98 ± 0.01 |  |  | 
CN1CCN(C)CCN(Cc2cc(/C=C/c3ccc(N(C)C)cc3)ccc2O)CC1 [Compound L4, (E)-2-((4,7-dimethyl-1,4,7-triazonan-1-yl)methyl)-4-(4-(dimethylamino)styryl)phenol] | 455 | 435 | 435 | 0.60 | 1.44 ± 0.01 | toxicity was exacerbated | greatest overall fluorescence enhancements | greatest inhibition; also recorded: best inhibition
CCN(CC)c1ccc(/C=C/c2ccc(O)c(CN3CCN(C)CCN(C)CC3)c2)cc1 [Compound L6, (E)-4-(4-(diethylamino)styryl)-2-((4,7-dimethyl-1,4,7-triazonan-1-yl)methyl)phenol] | 455 | 430 | 430 | 0.70 | 1.37 ± 0.01 |  |  | 
CN1CCN(C)CCN(Cc2cc(/C=C/c3ccc(N4CCOCC4)cc3)ccc2O)CC1 [Compound L10, (E)-2-((4,7-dimethyl-1,4,7-triazonan-1-yl)methyl)-4-(4-morpholinostyryl)phenol] | 455 | 435 | 435 | 0.74 | 1.03 ± 0.01 | rescue cells from Cu-Aβ42 cytotoxicity | highest fluorescence intensity; also recorded: greatest overall fluorescence enhancements | 

Continued, in another order:

Compound λem (λmax of emission) [1] [nm] | Compound+Fibrils λem (λmax of emission) (Aβ42 fibrils) [nm] | Compound+sAβ λem (λmax of emission) [2] [nm] | Pearson's coefficient (R) of colocalization with AF594-HJ3.4 [4] | logD [5] | SMILES | effect on Cu-stabilized Aβ42 / Aβ42-induced toxicity [3] | fluorescence enhancement / turn-on with Aβ aggregates [6] | inhibition of Aβ40 aggregation (ThT RFU) (Aβ40 peptide)
455 | 455 | 455 | 0.67 | 1.33 ± 0.01 | COc1cc(/C=C/c2ccc(N(C)C)cc2)cc(CN2CCN(C)CCN(C)CC2)c1O [Compound L1, (E)-2-((4,7-dimethyl-1,4,7-triazonan-1-yl)methyl)-4-(4-(dimethylamino)styryl)-6-methoxyphenol] | rescue cells from Cu-Aβ42 cytotoxicity |  | 
460 | 435 | 435 | 0.74 | 1.39 ± 0.01 | CCN(CC)c1ccc(/C=C/c2cc(CN3CCN(C)CCN(C)CC3)c(O)c(OC)c2)cc1 [Compound L5, (E)-4-(4-(diethylamino)styryl)-2-((4,7-dimethyl-1,4,7-triazonan-1-yl)methyl)-6-methoxyphenol] | rescue cells from Cu-Aβ42 cytotoxicity |  | 
460 | 430 | 430 | 0.66 | 1.35 ± 0.02 | COc1cc(/C=C/c2ccc(N3CCCCC3)cc2)cc(CN2CCN(C)CCN(C)CC2)c1O [Compound L7, (E)-2-((4,7-dimethyl-1,4,7-triazonan-1-yl)methyl)-6-methoxy-4-(4-(piperidin-1-yl)styryl)phenol] |  |  | 
455 | 450 | 450 | 0.77 | 0.85 ± 0.01 | COc1cc(/C=C/c2ccc(N3CCN(C)CC3)cc2)cc(CN2CCN(C)CCN(C)CC2)c1O [Compound L11, (E)-2-((4,7-dimethyl-1,4,7-triazonan-1-yl)methyl)-6-methoxy-4-(4-(4-methylpiperazin-1-yl)styryl)phenol] | inhibit both Cu-stabilized Aβ42- and Aβ42-induced toxicity; also recorded: rescue cells from Cu-Aβ42 cytotoxicity |  | 
